Consider one compound from article PMC9028219 (Frontiers in Nutrition, 2022).

This assay deals with Sarcoma-180 (S-180) tumor. As to conditions: 20 mg/kg bw i.p. Here is the method:
The S-180 cells were collected from Swiss albino mice harboring 8–10 days old cells from the peritoneal cavity. On day 0, the S-180 cells (1 × 10^7 cells/ml) were injected intra-peritoneal in non-inbred female Swiss albino mice (22–25 g, 8–10 weeks old) selected for the experiment. The next day (Day 1), the animals were randomized and divided into three treatment groups, one positive control group and one vehicle control group containing 5 animals in each group. […] The fourth group was given 5-fluorouracil; positive control at a dose of 20 mg/kg bw i.p. from day 1–9, and the fifth group (control) was administered normal saline (0.2 ml i.p.) for 9 days. On day 12, the animals were sacrificed, and the fluid was collected from each mouse's peritoneal cavity to evaluate tumor growth ([43]). The tumor growth inhibition was calculated using the following formula.
Tumor Growth Inhibition(%)=(Number of tumor cells in control group-Number of tumor cells in the test group)/Number of tumor cells in the control group×100

Setting [1] is: days 1-9, evaluated day 12, n = 5.

Regarding `O=c1[nH]cc(F)c(=O)[nH]1` [5 FU, 5-fluorouracil, reference compound], for the setting “days 1-9, evaluated day 12”, the Tumor growth inhibition was determined as 93.75%. Moreover, under setting [1], the “Tumor cell count Mean ± S.E” value is reported as 5 ± 0.28^*** 1 × 10^7, the “Tumor volume Mean ± S.E” value is on record as 0.16 ± 0.01 mL and the “Tumor weight Mean ± S.E” value is 0.16 ± 0.01 g.
